The values below come from ChEMBL document CHEMBL1121457, “Long-acting opiate agonists and antagonists: 14-hydroxydihydromorphinone hydrazones” (1980).

One assay is filed under the species Mus musculus. The assay is described as follows: Percent analgesia of compound was measured in mice by using tail-flick assay. Type of assay: functional. (In general: Hot-plate and tail-flick tests time the reaction to a heat stimulus.)
For assay [1], the species on record is Rattus norvegicus. Briefly: The compound was tested in vitro for the inhibition of [3H]naltrexone in rat brain homogenates in the presence of standard at 10 nM dose. Type of assay: functional.
Assay [2] is filed under the species Rattus norvegicus. Briefly: Percent decrease in activity for the inhibition of [3H]-Naltrexone in rat brain homogenates in the presence of standard at dose of 10 nM compared with that of control (4930+/-143 cpm). Type of assay: functional.
The species entered for assay [3] is Rattus norvegicus. The assay is described as follows: The compound was tested in vitro for the inhibition of [3H]-Naltrexone in rat brain homogenates in the presence of NaCl at 10 nM dose. Type of assay: functional.
For assay [4], the species on record is Rattus norvegicus. Briefly: The compound was tested in vitro for the inhibition of [3H]naltrexone in rat brain homogenates in the presence of MnCl2 at 10 nM dose.
The species entered for assay [5] is Rattus norvegicus. The assay is described as follows: Percent decrease in activity for the inhibition of [3H]naltrexone in rat brain homogenates in the presence of NaCl at dose of 10 nM compared with that of control (6070+/-75 cpm). Type of assay: functional.
Assay [6] is filed under the species Rattus norvegicus. Briefly: Percent decrease in activity for the inhibition of [3H]naltrexone in rat brain homogenates in the presence of MnCl2 at dose of 10 nM compared with that of control (4080+/-138 cpm). Type of assay: functional.
Assay [7] is filed under the species Rattus norvegicus. The assay is described as follows: The compound was tested in vitro for the inhibition of [3H]naltrexone in rat brain homogenates in the presence of NaCl and MnCl2 at 10 nM dose. Type of assay: functional, organism-based.
Assay [8] is filed under the species Rattus norvegicus. Briefly: Percent decrease in activity for the inhibition of [3H]naltrexone in rat brain homogenates in the presence of NaCl and MnCl2 at dose of 10 nM compared with that of control (5840+/-72 cpm). Type of assay: functional.
Assay [9] is filed under the species Rattus norvegicus. The assay is described as follows: Percent decrease in activity for the inhibition of [3H]naltrexone in rat brain homogenates in the presence of NaCl at dose of 4 nM compared with that of control (6070+/-75 cpm). Type of assay: functional.
The species named for assay [10] is Rattus norvegicus. Briefly: Percent decrease in activity for the inhibition of [3H]naltrexone in rat brain homogenates in the presence of standard at dose of 4 nM compared with that of control (4930+/-143 cpm). Type of assay: functional.
Assay [11] is filed under the species Rattus norvegicus. Briefly: The compound was tested in vitro for the inhibition of [3H]naltrexone in rat brain homogenates in the presence of NaCl and MnCl2 at 4 nM dose. Type of assay: functional, organism-based.
The species named for assay [12] is Rattus norvegicus. The assay is described as follows: The compound was tested in vitro for the inhibition of [3H]-Naltrexone in rat brain homogenates in the presence of MnCl2 at 4 nM dose. Type of assay: functional.
For assay [13], the species on record is Rattus norvegicus. Briefly: Percent decrease in activity for the inhibition of [3H]naltrexone in rat brain homogenates in the presence of NaCl and MnCl2 at dose of 4 nM compared with that of control (5840+/-72 cpm). Type of assay: functional.
The species entered for assay [14] is Rattus norvegicus. Briefly: Percent decrease in activity for the inhibition of [3H]naltrexone in rat brain homogenates in the presence of MnCl2 at dose of 4 nM compared with that of control (4080+/-138 cpm). Type of assay: functional.
The species named for assay [15] is Rattus norvegicus. Briefly: The compound was tested in vitro for the inhibition of [3H]naltrexone in rat brain homogenates in the presence of standard at 4 nM dose. Type of assay: functional.
The species entered for assay [16] is Rattus norvegicus. The assay is described as follows: The compound was tested in vitro for the inhibition of [3H]-Naltrexone in rat brain homogenates in the presence of MnCl2 at 10 nM dose. Type of assay: functional.

Compound `C=CCN1CC[C@]23c4c5ccc(O)c4O[C@H]2/C(=N\N)CC[C@@]3(O)[C@H]1C5` [NALOXAZONE] gave an Analgesia in the assay filed under Mus musculus of 0%. The Binding activity in the assay listed under Rattus norvegicus [1] came to 4400 c.p.m; in the assay filed under Rattus norvegicus [3], 4640 c.p.m; in the assay listed under Rattus norvegicus [4], 3140 c.p.m. Further, the Decrease stood at 11% in the assay filed under Rattus norvegicus [2], 24% in the assay listed under Rattus norvegicus [5] and 23% in the assay listed under Rattus norvegicus [6].
Compound `C=CCN1CC[C@]23c4c5ccc(O)c4O[C@H]2C(=O)CC[C@@]3(O)[C@H]1C5` [NALOXONE] gave an Analgesia in the assay listed under Mus musculus of 54%.
`N/N=C1/CC[C@@]2(O)[C@H]3Cc4ccc(O)c5c4[C@@]2(CCN3CC2CC2)[C@H]1O5` [NALTREXAZONE]: the Binding activity in the assay filed under Rattus norvegicus [7] came out at 2240 c.p.m; in the assay filed under Rattus norvegicus [1], 1910 c.p.m; in the assay listed under Rattus norvegicus [3], 2200 c.p.m; in the assay filed under Rattus norvegicus [11], 3480 c.p.m; in the assay listed under Rattus norvegicus [12], 2570 c.p.m; in the assay listed under Rattus norvegicus [15], 2980 c.p.m. The Binding activity in the assay listed under Rattus norvegicus [16] amounted to 1550 c.p.m. Moreover, in the assay listed under Mus musculus, the Analgesia amounted to 0%. For the same compound, the Decrease in the assay listed under Rattus norvegicus [8] is 62%; in the assay filed under Rattus norvegicus [9], 39%; in the assay listed under Rattus norvegicus [10], 39%; in the assay filed under Rattus norvegicus [2] it was 61%; in the assay listed under Rattus norvegicus [13], 40%; in the assay filed under Rattus norvegicus [14], 38%. Also, the Decrease in the assay listed under Rattus norvegicus [5] stood at 64%; in the assay listed under Rattus norvegicus [6], 62%.
In the case of `O=C1CC[C@@]2(O)[C@H]3Cc4ccc(O)c5c4[C@@]2(CCN3CC2CC2)[C@H]1O5` [NALTREXONE], the Analgesia in the assay filed under Mus musculus is on record as 67%.
As to `CN1CC[C@]23c4c5ccc(O)c4O[C@H]2/C(=N\N)CC[C@@]3(O)[C@H]1C5` [OXYMORPHAZONE], the Binding activity in the assay filed under Rattus norvegicus [7] worked out at 4560 c.p.m; in the assay filed under Rattus norvegicus [1], 3750 c.p.m; in the assay listed under Rattus norvegicus [3], 5520 c.p.m; in the assay listed under Rattus norvegicus [15] it was 4860 c.p.m. Besides, the Analgesia in the assay filed under Mus musculus worked out at 82%. For the same compound, the Decrease in the assay filed under Rattus norvegicus [8] is 22%; in the assay filed under Rattus norvegicus [9], 5%; in the assay filed under Rattus norvegicus [10] it was 2%; in the assay listed under Rattus norvegicus [2], 24%.
`CN1CC[C@]23c4c5ccc(O)c4O[C@H]2C(=O)CC[C@@]3(O)[C@H]1C5` [OXYMORPHONE]: the Analgesia in the assay filed under Mus musculus is 17%.
